Active and inactive are the calls of the source. No cut-off for these calls is given here.
Assays:
Cenchrus americanus [1] = assay: (§1) Induction of systemic acquired resistance against Sclerospora graminicola in Cenchrus americanus cultivar 7042S assessed as protection against downy mildew disease at 20 mM applied to seeds prior to sowing followed by inoculation on 2 day old seedling measured on day 30 in green house conditions (reference value: 3%); format: functional
Cenchrus americanus [2] = assay: Increase in seed vigor in Cenchrus americanus cultivar 7042S at 20 mM incubated for 6 hr followed by sowing measured at 7-day old seedling stage relative to control; format: functional, organism-based
Cenchrus americanus [3] = assay: Stimulation of seed germination in Cenchrus americanus cultivar 7042S at 20 mM incubated for 6 hr followed by sowing measured at 7-day old seedling stage (reference value: 88%); format: functional
Cenchrus americanus [4] = assay: as §1, with “and to foliar of 7” for “followed by inoculation on 2”, “seedling inoculated on day 2” for “seedling”, “field” for “green house”; format: functional
Cenchrus americanus [5] = assay: Induction of systemic acquired resistance against Sclerospora graminicola in Cenchrus americanus cultivar 7042S assessed as protection against downy mildew disease at 20 mM applied to foliar of 7 day old seedling inoculated on day 2 measured on day 30 in field conditions (reference value: 2%); format: functional
Cenchrus americanus [6] = assay: Effect on growth parameter in disease-susceptible Cenchrus americanus cultivar 7042S assessed as yield at 20 mM applied to seeds prior to sowing (reference value: 1209 +/- 9 kg/ha); format: functional
Cenchrus americanus [7] = assay: Effect on growth parameter in disease-susceptible Cenchrus americanus cultivar 7042S assessed as girth of ear at 20 mM applied to seeds prior to sowing measured after 60 days (reference value: 3.6 +/- 0.9 cm); format: functional
Cenchrus americanus [8] = assay: Effect on growth parameter in disease-susceptible Cenchrus americanus cultivar 7042S assessed as length of ear at 20 mM applied to seeds prior to sowing measured after 60 days (reference value: 9.4 +/- 0.8 cm); format: functional
Cenchrus americanus [9] = assay: Effect on growth parameter in disease-susceptible Cenchrus americanus cultivar 7042S assessed as increase in prodcutive tillers at 20 mM applied to seeds prior to sowing measured after 60 days relative to control; format: functional, organism-based
Cenchrus americanus [10] = assay: Stimulation of flowering in downy mildew disease-susceptible Cenchrus americanus cultivar 7042S assessed as days required for 50% flowering at 20 mM applied to seeds prior to sowing measured after 60 days (reference value: 44 +/- 0.7 days ); format: functional
Cenchrus americanus [11] = assay: Stimulation of growth in downy mildew disease-susceptible Cenchrus americanus cultivar 7042S assessed as plant height at 20 mM applied to seeds prior to sowing measured after 60 days (reference value: 58.5 cm); format: functional
Cenchrus americanus [12] = assay: as §1, with “seedling and challenge-inoculation to the inflorescence primordia at boot leaf stage” for “seedling”, “60” for “30”, “condition relative to control” for “conditions (reference value: 3%)”; format: functional
Cenchrus americanus [13] = assay: as §1, with “seedling and challenge-inoculation to the nodal tiller” for “seedling”, “60” for “30”, “condition relative to control” for “conditions (reference value: 3%)”; format: functional
Cenchrus americanus [14] = assay: as §1, with “at cleoptile stage at” for “on 2”, “6 post” for “old”, “seedling emergence” for “seedling”, “relative to control” for “(reference value: 3%)”; format: functional
Cenchrus americanus [15] = assay: Effect on growth parameter in disease-susceptible Cenchrus americanus cultivar 7042S assessed as weight of 1000 seeds at 20 mM applied to seeds prior to sowing (reference value: 7.4 +/- 1.4 g); format: functional
Cenchrus americanus [16] = assay: as §1, with “field” for “green house”; format: functional
Cenchrus americanus [17] = assay: as §1, with “at cleoptile stage at” for “on 2”, “5 post” for “old”, “seedling emergence” for “seedling”, “relative to control” for “(reference value: 3%)”; format: functional
Cenchrus americanus [18] = assay: as §1, with “at cleoptile stage at” for “on 2”, “4 post” for “old”, “seedling emergence” for “seedling”, “relative to control” for “(reference value: 3%)”; format: functional
Cenchrus americanus [19] = assay: as §1, with “at cleoptile stage at” for “on 2”, “3 post” for “old”, “seedling emergence” for “seedling”, “relative to control” for “(reference value: 3%)”; format: functional
Cenchrus americanus [20] = assay: (§2) Induction of systemic acquired resistance against Sclerospora graminicola in Cenchrus americanus cultivar 7042S assessed as protection against downy mildew disease at 20 mM applied to seeds prior to sowing followed by inoculation at cleoptile stage at day 2 post seedling emergence measured on day 30 in green house conditions relative to control; format: functional
Cenchrus americanus [21] = assay: as §2, with “day 1” for “day 2”; format: functional
Cenchrus americanus [22] = assay: Effect on seed vigor in Cenchrus americanus cultivar 7042S assessed as vigor index at 20 mM incubated for 6 hr followed by sowing measured at 7-day old seedling stage (reference value: 990); format: functional
Cenchrus americanus [23] = assay: (§3) Induction of systemic acquired resistance against Sclerospora graminicola in Cenchrus americanus cultivar 7042S assessed as protection against downy mildew disease at 6 g/kg applied to foliar of 7 day old seedling inoculated on day 2 measured on day 30 in field conditions (reference value: 2%); format: functional
Cenchrus americanus [24] = assay: as §3, with “to seeds prior to sowing and to” for “to”, “3%)” for “2%)”; format: functional
Cenchrus americanus [25] = assay: as §1, with “6 g/kg” for “20 mM”, “field” for “green house”; format: functional
Cenchrus americanus [26] = assay: as §1, with “6 g/kg” for “20 mM”, “condition(reference” for “conditions (reference”; format: functional

Compound | Activity (Cenchrus americanus [1]) [%] | Activity (Cenchrus americanus [2]) | Activity (Cenchrus americanus [3]) [%] | Activity (Cenchrus americanus [4]) [%] | Activity (Cenchrus americanus [5]) [%] | Activity (Cenchrus americanus [6]) [kg/ha] | Activity (Cenchrus americanus [7]) [cm] | Activity (Cenchrus americanus [8]) [cm] | Activity (Cenchrus americanus [9]) | Time (Cenchrus americanus [10]) [days] | Activity (Cenchrus americanus [11]) [cm] | Activity (Cenchrus americanus [12]) [%] | Activity (Cenchrus americanus [13]) [%] | Activity (Cenchrus americanus [14]) [%] | Activity (Cenchrus americanus [15]) [g] | Activity (Cenchrus americanus [16]) [%] | Activity (Cenchrus americanus [17]) [%] | Activity (Cenchrus americanus [18]) [%] | Activity (Cenchrus americanus [19]) [%] | Activity (Cenchrus americanus [20]) [%] | other results
O=C(O)CCCC[C@@H]1SC[C@@H]2NC(=O)N[C@@H]21 [BIOTIN] | 51 | Active | 91 |  |  |  |  |  |  |  |  |  |  |  |  |  |  |  |  |  | 
Nc1nc(=O)c2nc(CNc3ccc(C(=O)N[C@@H](CCC(=O)O)C(=O)O)cc3)cnc2[nH]1 [FOLIC ACID] | 42 | Active | 90 |  |  |  |  |  |  |  |  |  |  |  |  |  |  |  |  |  | 
CC1(S(=O)(=O)[O-])CC(=O)c2ccccc2C1=O.[Na+] (stereo not given) [MENADIONE SODIUM BISULPHITE] | 73 |  | 93 | 72 | 66 | 1328 | 4.1 | 12 | Active | 40 | 68 | 79 | 77 | 74 | 11.74 | 68 | 74 | 73 | 65 | 51 | Activity (Cenchrus americanus [21]): 46%; Vigour_index (Cenchrus americanus [22]): 1312
COCC(=O)N(c1c(C)cccc1C)C(C)C(=O)OC (stereo not given) [METALAXYL] |  |  |  |  |  |  |  |  |  |  |  |  |  |  |  |  |  |  |  |  | Activity (Cenchrus americanus [23]): 91%; Activity (Cenchrus americanus [24]): 92%; Activity (Cenchrus americanus [25]): 92%; Activity (Cenchrus americanus [26]): 92%
O=C(O)c1cccnc1 [NIACIN] | 63 |  | 92 | 65 | 60 | 1306 | 4 | 11.8 | Active | 42 | 66 | 71 | 69 | 63 | 10.97 | 63 | 63 | 63 | 56 | 51 | Activity (Cenchrus americanus [21]): 45%; Vigour_index (Cenchrus americanus [22]): 1217
Cc1ncc(CO)c(CO)c1O [PYRIDOXINE] | 44 | Active | 91 |  |  |  |  |  |  |  |  |  |  |  |  |  |  |  |  |  | 
Cc1cc2nc3c(=O)[nH]c(=O)nc-3n(C[C@H](O)[C@H](O)[C@H](O)CO)c2cc1C [RIBOFLAVIN] | 62 |  | 92 | 67 | 61 | 1281 | 3.9 | 11.4 | Active | 43 | 62 | 69 | 64 | 63 | 9.5 | 61 | 63 | 63 | 55 | 50 | Activity (Cenchrus americanus [21]): 43%
